We go through 29 compounds from patent US9375005B2, “5-halogenopyrazole indanyl carboxamides” (BAYER CROPSCIENCE AG, priority 2012, dated 2016).

Marks after values point to notes of the source that are not given here.

One data set concerns Pyrenophora teres. The experiment in a line: In vivo preventive test on Pyrenophora teres (net blotch on barley). The settings on record: dose 500 ppm; barley plants sprayed 24 h before contamination; grading 14 days after contamination. As to the method:
Barley plants (“Plaisant” variety), sown in starter cups on a 50/50 peat soil-pozzolana substrate and grown at 22° C., are treated at the 1-leaf stage (10 cm height) by spraying with the active ingredient prepared as described above. Plants, used as controls, are treated with the mixture of acetone/tween/DMSO/water not containing the active material. After 24 hours, the plants are contaminated by spraying the leaves with an aqueous suspension of Pyrenophora teres spores (12 000 spores per ml). The spores are collected from a 12-day-old culture. […] Grading (% of efficacy) is carried out 14 days after the contamination, in comparison with the control plants.

The test system of a further data set is Uromyces appendiculatus. The experiment in a line: In vivo preventive test on Uromyces appendiculatus (bean rust). The settings on record: bean plants sprayed 24 h before contamination, grading 11 days after contamination. As to the method: Bean plants (“Saxa” variety), sown in starter cups on a 50/50 peat soil-pozzolana substrate and grown at 24° C., are treated at the 2-leaf stage (9 cm height) by spraying with the active ingredient prepared as described above. Plants, used as controls, are treated with the mixture of acetone/tween/DMSO/water not containing the active material. After 24 hours, the plants are contaminated by spraying the leaves with an aqueous suspension of Uromyces appendiculatus spores (150 000 spores per ml). […] Grading (% of efficacy) is carried out 11 days after the contamination, in comparison with the control plants.

Data set [1] can be described thus: Measurement of log P values by HPLC on reversed phase columns (EEC directive 79/831 Annex V.A8). Type of data set: physicochemical.
The next data set concerns Puccinia recondita. Nature of the data set: In vivo preventive test on Puccinia recondita (brown rust on wheat). The following applies: wheat plants sprayed 24 h before contamination, grading 12 days after contamination. As to the method:
Plants, used as controls, are treated with the mixture of acetone/tween/DMSO/water not containing the active material. After 24 hours, the plants are contaminated by spraying the leaves with an aqueous suspension of Puccinia recondita spores (100 000 spores per ml). […] Grading (% of efficacy) is carried out 12 days after the contamination, in comparison with the control plants.

The next data set relates to Sphaerotheca fuliginea. Nature of the data set: In vivo preventive test on Sphaerotheca fuliginea (powdery mildew on cucurbits). The following applies: dose 500 ppm; gherkin plants sprayed 24 h before contamination; grading 12 days after contamination. As to the method: Gherkin plants (“Vert petit de Paris” variety), sown in starter cups on a 50/50 peat soil-pozzolana substrate and grown at 24° C., are treated at the Z11 cotyledon stage by spraying with the active ingredient prepared as described above. Plants, used as controls, are treated with the mixture of acetone/tween/DMSO/water not containing the active material. After 24 hours, the plants are contaminated by spraying the cotyledons with an aqueous suspension of Sphaerotheca fuliginea spores (100 000 spores per ml). The spores are collected from infected plants. The contaminated to gherkin plants are incubated at about 20° C. and at 70-80% relative humidity. Grading (% of efficacy) is carried out 12 days after the contamination, in comparison with the control plants.

With `CCC1(C)CCc2c(NC(=O)c3c(C(F)F)nn(C)c3Cl)cccc21` (single isomer, unassigned) [Example 52], the Eff. % in the data set on Pyrenophora teres stood at 80%; in the data set on Uromyces appendiculatus (dose 500 ppm), 100%; in the data set on Puccinia recondita (dose 500 ppm) it was 98%. The logP in data set [1] (method marked [a]) is 4.31[a].

Consider `CC1Cc2cccc(NC(=O)c3c(C(F)F)nn(C)c3F)c2C1` (centres unmarked) [Example 7], for which the figures for the Eff. % in the data set on Uromyces appendiculatus (dose 500 ppm), with Sphaerotheca fuliginea and with Puccinia recondita (dose 500 ppm) were 100%, 78% and 98%, respectively. The logP in data set [1] (method marked [a]) was 3.31[a].

As for `Cn1nc(C(F)F)c(C(=O)Nc2cccc3c2CC2(CCCC2)C3)c1Cl` [Example 15], the figures for the Eff. % in the data set on Pyrenophora teres, with Uromyces appendiculatus (dose 500 ppm) and in the data set with Puccinia recondita (dose 500 ppm) were 71%, 100% and 100%, respectively. In addition, the logP in data set [1] (method marked [a]) was 4.44[a].

Regarding `CC1CC(C)(C)c2c(I)ccc(NC(=O)c3c(C(F)F)nn(C)c3Cl)c21` (centres unmarked) [Example 20], the Eff. % turned out to be 97% in the data set with Pyrenophora teres, 99% in the data set with Uromyces appendiculatus (dose 500 ppm) and 98% with Puccinia recondita (dose 500 ppm). Also, the logP was 4.91[a]; in data set [1] (method marked [a]) and 4.89[b] in data set [1] (method marked [b]).

As to `CC(C)C1Cc2c(NC(=O)c3c(C(F)F)nn(C)c3Cl)cccc2C1C` (centres unmarked) [Example 21], the Eff. % with Uromyces appendiculatus (dose 500 ppm) worked out at 100%; with Sphaerotheca fuliginea, 89%; in the data set on Puccinia recondita (dose 500 ppm), 98%. Also, the logP in data set [1] (method marked [a]) is 4.69[a].

`CC1CC(C)(C)c2c(Br)ccc(NC(=O)c3c(C(F)F)nn(C)c3Cl)c21` (centres unmarked) [Example 36]: the Eff. % with Pyrenophora teres was 75%; in the data set on Uromyces appendiculatus (dose 500 ppm) it was 77%. Further, the logP in data set [1] (method marked [a]) is 4.77[a];; in data set [1] (method marked [b]), 4.68[b].

For the compound `CC1CC(C)(C)c2cccc(NC(=O)c3c(C(F)F)nn(C)c3Br)c21` (centres unmarked) [Example 42], the Eff. % in the data set on Uromyces appendiculatus (dose 500 ppm), in the data set with Sphaerotheca fuliginea and in the data set on Puccinia recondita (dose 500 ppm) was 100% each time. Also, the logP in data set [1] (method marked [a]) is 4.03[a].

`CC1CC(C)(C)c2c(Br)ccc(NC(=S)c3c(C(F)F)nn(C)c3F)c21` (centres unmarked) [Example 55]: the Eff. % in the data set on Pyrenophora teres was found to be 75%; with Uromyces appendiculatus (dose 500 ppm), 70%; in the data set with Puccinia recondita (dose 500 ppm), 94%. Also, the figures for the logP in data set [1] (method marked [a]) and in data set [1] (method marked [b]) were 4.64[a]; and 4.49[b], respectively.

As for `Cn1nc(C(F)F)c(C(=O)Nc2cccc3c2CC(C2CCCC2)C3)c1Cl` (centres unmarked) [Example 57], the figures for the Eff. % in the data set on Pyrenophora teres, in the data set with Uromyces appendiculatus (dose 500 ppm) and in the data set with Puccinia recondita (dose 500 ppm) were 97%, 100% and 94%, respectively. Further, the logP in data set [1] (method marked [a]) was 5.03[a].

For the compound `Cn1nc(C(F)F)c(C(=O)Nc2cccc3c2CCC3C(C)(C)C)c1Cl` (centres unmarked) [Example 67], the Eff. % in the data set on Uromyces appendiculatus (dose 500 ppm) was determined as 100%; in the data set with Puccinia recondita (dose 500 ppm), 94%. For the same compound, the logP in data set [1] (method marked [a]) was 4.64[a].

Regarding `CC(C)C1Cc2c(NC(=O)c3c(C(F)F)nn(C)c3Br)cccc2C1(C)C` (centres unmarked) [Example 68], the Eff. % stood at 100% with Uromyces appendiculatus (dose 500 ppm) and 98% in the data set with Puccinia recondita (dose 500 ppm). Besides, in data set [1] (method marked [a]), the logP is 4.92[a].

With `Cn1nc(C(F)F)c(C(=O)Nc2cccc3c2CC(C)(C)C3)c1Br` [Example 71], the Eff. % in the data set on Uromyces appendiculatus (dose 500 ppm) was 99%; with Puccinia recondita (dose 500 ppm), 98%. The logP in data set [1] (method marked [a]) is 3.87[a].

On to `Cn1nc(C(F)F)c(C(=S)Nc2cccc3c2CCC3C(C)(C)C)c1Cl` (centres unmarked) [Example 74], for which the Eff. % worked out at 100% with Uromyces appendiculatus (dose 500 ppm), 98% in the data set with Sphaerotheca fuliginea and 100% with Puccinia recondita (dose 500 ppm). Also, the logP in data set [1] (method marked [a]) is 4.64[a].

Regarding `CC1CC2(CC2)c2cccc(NC(=O)c3c(C(F)F)nn(C)c3Br)c21` (centres unmarked) [Example 76], the Eff. % in the data set on Uromyces appendiculatus (dose 500 ppm) is 100%; with Puccinia recondita (dose 500 ppm) it was 98%. For the same compound, the logP in data set [1] (method marked [a]) was 3.83[a].

`CC1c2cccc(NC(=O)c3c(C(F)F)nn(C)c3Cl)c2CC1(C)C` (centres unmarked) [Example 77]: the Eff. % was 100% with Uromyces appendiculatus (dose 500 ppm), 98% with Sphaerotheca fuliginea and 100% with Puccinia recondita (dose 500 ppm). Moreover, the logP in data set [1] (method marked [a]) was 4.19[a].

Consider `CC(C)CC1CC(C)c2c(NC(=O)c3c(C(F)F)nn(C)c3Cl)cccc21` (centres unmarked) [Example 79], for which the Eff. % in the data set with Pyrenophora teres is on record as 92%; with Uromyces appendiculatus (dose 500 ppm) it was 100%; in the data set with Puccinia recondita (dose 500 ppm) it was 94%. In addition, the logP in data set [1] (method marked [a]) is 4.98[a].

Regarding `CC1c2cccc(NC(=O)c3c(C(F)F)nn(C)c3Br)c2CC1(C)C` (centres unmarked) [Example 81], the results for the Eff. % with Uromyces appendiculatus (dose 500 ppm) and with Puccinia recondita (dose 500 ppm) were 99% and 98%, respectively. Moreover, the logP in data set [1] (method marked [a]) was 4.16[a].

With `CCON=C1CC(C)c2c(NC(=O)c3c(C(F)F)nn(C)c3Cl)cccc21` (centres unmarked) [Example 82], the Eff. % in the data set with Pyrenophora teres is listed as 75%; in the data set with Uromyces appendiculatus (dose 500 ppm) it was 99%; with Puccinia recondita (dose 500 ppm), 88%. The logP in data set [1] (method marked [a]) is 3.42[a].

For the compound `CCCON=C1CC(C)c2c(NC(=O)c3c(C(F)F)nn(C)c3Cl)cccc21` (centres unmarked) [Example 84], the figures for the Eff. % in the data set with Pyrenophora teres and with Puccinia recondita (dose 500 ppm) were 75% and 81%, respectively. Also, the logP in data set [1] (method marked [a]) is 3.92[a].

On to `CC1c2c(NC(=O)c3c(C(F)F)nn(C)c3Cl)cccc2C(C)(C)C1C` (centres unmarked) [Example 85], for which the Eff. % is 92% in the data set on Pyrenophora teres, 99% in the data set with Uromyces appendiculatus (dose 500 ppm) and 98% in the data set on Puccinia recondita (dose 500 ppm). Besides, the logP in data set [1] (method marked [a]) is 4.2[a].

For the compound `CON=C1CC(C)c2c(NC(=O)c3c(C(F)F)nn(C)c3Cl)cccc21` (centres unmarked) [Example 88], the Eff. % in the data set with Uromyces appendiculatus (dose 500 ppm) came out at 100%; with Puccinia recondita (dose 500 ppm), 81%. The logP in data set [1] (method marked [a]) was 2.98[a].

For `CC(C)C1Cc2c(NC(=S)c3c(C(F)F)nn(C)c3Cl)cccc2C1(C)C` (centres unmarked) [Example 94, 5-chloro-3-(difluoromethyl)-N-(2-isopropyl-1,1-dimethyl-2,3-dihydro-1H-inden-4-yl)-1-methyl-1H-pyrazole-4-carbothioamide], the Eff. % stood at 99% in the data set on Uromyces appendiculatus (dose 500 ppm) and 89% with Puccinia recondita (dose 500 ppm). Further, the logP in data set [1] (pH 2.7) is 4.92[a].

On to `CC1CC(CC(C)(C)C)c2cccc(NC(=S)c3c(C(F)F)nn(C)c3Cl)c21` (centres unmarked) [Example 98], for which the Eff. % with Uromyces appendiculatus (dose 500 ppm) is 100%; in the data set on Sphaerotheca fuliginea it was 98%; in the data set with Puccinia recondita (dose 500 ppm), 98%. In data set [1] (method marked [a]), the logP is 5.31[a].

With `CC(C)CC1CC(C)c2c(NC(=O)c3c(C(F)F)nn(C)c3Cl)cccc21` (centres unmarked) [Example 99], the Eff. % in the data set with Uromyces appendiculatus (dose 100 ppm) and in the data set on Puccinia recondita (dose 100 ppm) was 100% in each case. The logP in data set [1] (method marked [a]) was 5.01[a].

As to `CC(C)C1Cc2c(NC(=S)c3c(C(F)F)nn(C)c3Br)cccc2C1(C)C` (centres unmarked) [Example 102], the Eff. % with Uromyces appendiculatus (dose 100 ppm) came to 100%; with Puccinia recondita (dose 100 ppm), 94%. In addition, in data set [1] (method marked [a]), the logP was 4.87[a].

Regarding `CC1CC2(CCCCC2)c2cccc(NC(=S)c3c(C(F)F)nn(C)c3Cl)c21` (centres unmarked) [Example 108], the results for the Eff. % in the data set on Uromyces appendiculatus (dose 100 ppm) and in the data set on Puccinia recondita (dose 100 ppm) were 100% and 90%, respectively. Further, the logP in data set [1] (method marked [a]) was 5.01[a].

Take `CC1CCc2c(NC(=O)c3c(C(F)F)nn(C)c3Cl)cccc21` (centres unmarked) [Example 109]: the Eff. % came out at 99% with Uromyces appendiculatus (dose 100 ppm) and 94% in the data set on Puccinia recondita (dose 100 ppm). For the same compound, the logP in data set [1] (method marked [a]) was 3.52[a].

As for `CC1CC2(CCCCC2)c2cccc(NC(=O)c3c(C(F)F)nn(C)c3Cl)c21` (centres unmarked) [Example 110], the Eff. % in the data set with Uromyces appendiculatus (dose 100 ppm) was 99%; in the data set with Puccinia recondita (dose 100 ppm), 83%. Also, the logP in data set [1] (method marked [a]) was 5.01[a].

Consider `CC1CC2(CCCC2)c2cccc(NC(=O)c3c(C(F)F)nn(C)c3Cl)c21` (centres unmarked) [Example 111], for which the Eff. % in the data set on Uromyces appendiculatus (dose 100 ppm) worked out at 100%; with Puccinia recondita (dose 100 ppm) it was 98%. Besides, the logP in data set [1] (method marked [a]) is 4.64[a].
